Experimental data: US20250382250A1, “STILBENE DERIVATIVE AS AHR AGONIST AND USE THEREOF” (NANJING GRITPHARMACO., LTD., priority 2022, published 2025)
Marks after values point to notes of the source that are not given here.

Key:
[1] = biological target: T1, AhR (Homo sapiens, UniProt P35869); test: AhR agonism luciferase reporter gene assay in transfected HepG2 cells; assay type: cell-based; conditions: 16 h, ratio of treatment group to blank
T1 construct: expressed in transfected cells; host or cells: HepG2
T1 sequence (P35869 11-848): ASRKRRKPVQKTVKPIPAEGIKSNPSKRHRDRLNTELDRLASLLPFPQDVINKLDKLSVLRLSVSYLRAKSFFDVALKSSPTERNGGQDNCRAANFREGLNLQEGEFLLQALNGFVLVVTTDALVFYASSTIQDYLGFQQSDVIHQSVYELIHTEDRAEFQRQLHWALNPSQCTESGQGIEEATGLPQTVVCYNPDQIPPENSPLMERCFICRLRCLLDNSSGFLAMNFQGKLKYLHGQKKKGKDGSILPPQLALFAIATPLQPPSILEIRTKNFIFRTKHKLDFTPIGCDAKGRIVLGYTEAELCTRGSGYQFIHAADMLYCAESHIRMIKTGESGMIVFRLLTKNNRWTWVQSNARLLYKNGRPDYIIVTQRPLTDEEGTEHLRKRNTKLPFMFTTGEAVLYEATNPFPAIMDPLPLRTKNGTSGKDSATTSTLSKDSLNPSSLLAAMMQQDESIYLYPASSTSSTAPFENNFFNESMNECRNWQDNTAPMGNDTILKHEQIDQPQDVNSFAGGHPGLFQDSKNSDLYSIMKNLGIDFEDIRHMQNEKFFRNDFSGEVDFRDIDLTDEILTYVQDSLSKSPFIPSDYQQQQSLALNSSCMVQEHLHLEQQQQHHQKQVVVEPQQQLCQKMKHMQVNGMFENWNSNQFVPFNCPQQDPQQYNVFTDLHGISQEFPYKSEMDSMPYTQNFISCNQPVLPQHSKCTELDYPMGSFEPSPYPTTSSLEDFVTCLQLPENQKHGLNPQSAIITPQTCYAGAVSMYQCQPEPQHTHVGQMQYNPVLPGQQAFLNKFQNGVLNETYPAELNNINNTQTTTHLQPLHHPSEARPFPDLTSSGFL
Description: When the cell confluence reached 80%, the culture medium was replaced with a fresh one, and the transfection working solution was added for transfection overnight. The formula of the working solution is as follows: 1 mL of Opti-MEM+7.5 μg of pCMV-AHR+7.5 μg of pTK-3×DRE-Luc+30 μL of lipo6000. • (2) Cell plating: The transfected cells were digested, prepared into a cell suspension at a concentration of 3×10^5 cells/mL, and then plated on a 96-well plate at 100 µL/well for adherent culture overnight. • (3) Formulation
The prepared drug-containing culture media and a blank culture medium were added to the 96-well plate described above at 100 μL/well.

[2] = test system: IL4; test: Regulatory effect on cytokine secretion in PHA-stimulated PBMCs: IL4; assay type: cell-based; conditions: for IL4: PBMCs, 15 μg/mL PHA, 24 h (PHA group 9.42)
Description: • (1) Cells: […]; • (2) Cell plating and treatment: After the PBMCs were taken out from the liquid nitrogen tank and thawed, 80 μL of culture medium was added to a 96-well plate, and the cells were added at 200,000 cells/well. The culture media containing 2 μM or 0.2 μM compound 2 #, compound 6 #, or reference 1 # were added to the 96-well plate at 80 μL, at a final drug concentration of 1 μM or 0.1 μM per well. The plate was let stand for 1 h for pretreatment. After the pretreatment, the drug-containing medium was discarded, and 1 μM or 0.1 μM solution containing 15 μg/mL PHA (phytohemaggluyinin) was added at 80 μL/well. After 24 h of stimulation, the content of cytokines in the culture medium was detected. • Blank control group: The cells were treated with a normal culture medium with no drugs; • PHA group: A culture medium containing 15 μg/mL PHA but no compounds of the present disclosure was added at 80 μL/well.

[3] = test system: atopic dermatitis; test: DNFB-induced atopic dermatitis mouse model (AD Score); assay type: in vivo, BALB/C mice; design: scale not given here; conditions: DNFB mice
Description: 56 clean-grade BALB/C mice aged 6-8 weeks were subjected to 5 days of adaptive feeding and then randomized into 7 groups of 8 mice each: • A. Blank control group • B. Modeling+solvent group • C. Modeling+blank matrix group • D. Modeling+positive drug mometasone furoate group • E. Modeling+1 wt % of benvitimod group • F. […] The animal experiments were conducted in accordance with the Experimental Animal Feeding, Management and Use Guidelines of China Pharmaceutical University and in compliance with animal study ethics and regulations. As shown in the above procedures, the solvent control or DNFB was given in the morning for modeling; from day 5, the test compound ointment was administered once every afternoon at 50 mg/dose evenly on the skin surface. The specific administration method is as shown above; Specific procedures: […] Severity of atopic dermatitis was scored using the AD Score criteria The severity of the appearance of dermatitis was evaluated based on 4 indicators: A. erythema/bleeding; B. dryness; C. effusion/crusting; D. edema.

[4] = Drug permeation rate test, in vitro diffusion through semipermeable membrane; assay type: in vitro ADME; conditions: ointments: 2# 1.2 wt %, 6# 1.2 wt %, benvitimod 1.0 wt %, 32° C.
Description: Test compounds: compound 2 #ointment, 1.2 wt %; compound 6 #ointment, 1.2 wt %; benvitimod ointment, 1.0 wt %;
[drawing 90] • (1) Preparation of semipermeable membrane: The semipermeable membrane, which had been prepared in advance, was taken out from the refrigerator; • (2) Preparation of receiving liquid: 100 mL of polyethylene glycol 400 solution was brought to a final volume of 250 mL with normal saline. The mixture was mixed well and stored at 4° C. Before each permeation in the receiving compartment, the system was preheated to 32° C.; • (3) In vitro diffusion test: A drug transdermal diffusion apparatus was used to fix the processed semipermeable membrane between the supply and receiving compartments. A constant temperature water bath circulation at 32° C. was maintained. The system was equilibrated for 30 min. Upon each replacement of the receiving liquid, the air at the lower layer was exhausted. About 0.5 g of the ointment was evenly smeared in the supply compartment. The system was stirred with a magnetic stirring at a rotation speed of 600 r/min. At 0.5, 1, 2, 4, 6, and 24 h, 1 mL of sample liquid was taken out from the receiving compartment, and simultaneously, an equal amount of fresh receiving liquid at the same temperature was added;
The sampling time points were 0.5, 1, 2, 4, 6, and 24 h, and 1 mL of sample was directly transferred into a liquid phase vial. Simultaneously, an equal amount of fresh receiving liquid at the same temperature was added. The liquid phase detection was conducted to calculate the drug permeation rate.

[5] = day 0, before ointment treatment (from day 5)
[6] = day 4, before ointment treatment (from day 5)
[7] = day 6, ointment 50 mg once daily from day 5 (1.2 wt % 2#/6#, 1 wt % benvitimod)
[8] = day 8, ointment 50 mg once daily from day 5 (1.2 wt % 2#/6#, 1 wt % benvitimod)
[9] = day 10, ointment 50 mg once daily from day 5 (1.2 wt % 2#/6#, 1 wt % benvitimod)

SMILES | AhR receptor agonistic fold ([1]; drug concentration 0.1 μM) [fold] | AhR receptor agonistic fold ([1]; drug concentration 1 μM) [fold] | IL4 ([2]; 0.1 μM) [pg/mL] | inhibitory effect on IL4 relative to reference 1# (benvitimod) ([2]; 1 μM) [folds] | IL4 ([2]; 1 μM) [pg/mL] | Back AD score [3, 5] | Back AD score [3, 6] | Back AD score [3, 7] | Back AD score [3, 8] | Back AD score [3, 9] | 24-hour drug permeation rate (rank order) [4]
Oc1cc(/C=C/c2ccc(F)cc2)cc(O)c1C1CCCCC1 [Compound 6, (E)-2-cyclohexyl-5-(4-fluorostyryl)-1,3-benzenediol] | 6.6 ± 0.1 | 25.9 ± 0.4 | 4.62 | 2 | 2.75 | 0.00 ± 0.00 | 3.50 ± 0.35 | 5.56 ± 1.45 | 6.69 ± 1.64**^a | 5.44 ± 1.13**^aab | benvitimod >2 #>6 #
CC(C)c1c(O)cc(/C=C/c2ccccc2)cc1O [Reference 1#, Benvitimod, reference compound] | 3.2 ± 1.2 | 10.6 ± 1.0 | 9.30 |  | 5.63 | 0.00 ± 0.00 | 3.63 ± 0.78 | 7.44 ± 1.07 | 7.19 ± 1.14 | 6.81 ± 1.00 | benvitimod >2 #>6 #
